The text below walks through data of patent US9242984B2, “Pyrazolyl derivatives as Syk inhibitors” (Merck Sharp & Dohme Corp., priority 2012, dated 2016).

One assay addresses T1, recombinant human Syk (GST-hSyk fusion protein) (Homo sapiens, UniProt P43405).
T1 construct: purchased Carna Biosciences 08-176
The experiment in a line: Homogeneous Time-Resolved Fluorescence (HTRF) assay for the recombinant human Syk enzyme. The format is biochemical. The conditions noted are these: 10-dose titration, 25 μM ATP; read-out: rhSYK IC50. In short, it runs like this:
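GST-hSyk (5 pM) preincubated 10 min with compound (0.1% DMSO) in 15 mM Tris-HCl pH 7.5, 2 mM DTT; reaction started with 250 nM biotinylated peptide, 5 mM Mg, 25 μM ATP, 45 min, room temperature. EDTA quench, Eu-anti-phosphotyrosine/SA-APC HTRF read after 30 min; IC50 from 10-dose titration (10 μM–0.508 nM), four-parameter fit.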
As for `Cc1cc(Nc2nccc(C(F)(F)F)n2)cc(-c2cnn(C(C)(C)CC#N)c2)c1` [Example 9.1, 3-methyl-3-[4-(3-methyl-5-{[4-(trifluoromethyl)pyrimidin-2-yl]amino}phenyl)-1H-pyrazol-1-yl]butanenitrile], the IC50 stood at 9 nM. Take `Cc1cc(Nc2nccc(C)n2)cc(-c2cnn(C3CCCC(O)C3O)c2)c1` (stereo not drawn) [Example 10.8, 3-(4-{3-methyl-5-[(4-methylpyrimidin-2-yl)amino]phenyl}-1H-pyrazol-1-yl)cyclohexane-1,2-diol]: the IC50 amounted to 7.8 nM. As to `Cc1cc(Nc2nccc(C)n2)cc(-c2cnn(C3CCCC(O)C3O)c2)c1` (stereo not drawn) [Example 10.9, 3-(4-{3-methyl-5-[(4-methylpyrimidin-2-yl)amino]phenyl}-1H-pyrazol-1-yl)cyclohexane-1,2-diol], the IC50 was 4.8 nM. Still for that read-out and setting: then `Cc1cc(Nc2nccc(C)n2)cc(-c2cnn(C3CCCC(O)C3O)c2)c1` (stereo not drawn) [Example 10.10, 3-(4-{3-methyl-5-[(4-methylpyrimidin-2-yl)amino]phenyl}-1H-pyrazol-1-yl)cyclohexane-1,2-diol], with 29.4 nM; and `Cc1cc(Nc2nccc(C3CC3)n2)cc(-c2cnn(C[C@@H](O)C(=O)O)c2)c1` [Example 11.1, (R)-3-(4-(3-(4-cyclopropylpyrimidin-2-ylamino)-5-methylphenyl)-1H-pyrazol-1-yl)-2-hydroxypropanoic acid], with 6.2 nM.

The assay is the same for the next values; noted with them: IC50 class; 10-dose titration, 25 μM ATP; read-out: rhSYK Activity.
Consider `Cc1cc(Nc2cc(C(F)(F)F)ccn2)nc(-c2cnn(C3CCC(C(N)=O)c4ccccc43)c2)c1` (stereo not drawn) [Example 6.14, 4-[4-(4-methyl-6-{[4-(trifluoro-methyl)-pyridin-2-yl]amino}-pyridin-2-yl)-1H-pyrazol-1-yl]-1,2,3,4-tetrahydro-naphthalene-1-carboxamide], for which the IC50 is not above 100 nM. As for `Cc1cc(Nc2cc(C(F)(F)F)ccn2)nc(-c2cnn(C[C@H](O)C(N)=O)c2)c1` [Example 6.15, (2S)-2-hydroxy-3-[4-(4-methyl-6-{[4-(trifluoro-methyl)-pyridin-2-yl]amino}-pyridin-2-yl)-1H-pyrazol-1-yl]-propanamide], the IC50 was not above 100 nM.

With `Cc1cc(Nc2cc(C(F)(F)F)ccn2)nc(-c2cnn(CC(O)c3ccc(C(N)=O)cc3)c2)c1` (stereo not drawn) [Example 6.16, 4-{1-hydroxy-2-[4-(4-methyl-6-{[4-(trifluoromethyl)-pyridin-2-yl]amino}-pyridin-2-yl)-1H-pyrazol-1-yl]ethyl}-benzamide], the IC50 was not above 100 nM. Turning to `Cc1cc(Nc2nccc(C(F)(F)F)n2)cc(-c2cnn(C[C@H](N)C(N)=O)c2)c1` [Example 7.2, 3-[4-(3-methyl-5-{[4-(trifluoro-methyl)pyrimidin-2-yl]amino}phenyl)-1H-pyrazol-1-yl]-1-alaninamide], the IC50 is not above 100 nM. As for `Cc1cc(Nc2nccc(C(F)(F)F)n2)cc(-c2cnn(C[C@@H](O)C(N)=O)c2)c1` [Example 7.3, (2R)-2-hydroxy-3-[4-(3-methyl-5-{[4-(trifluorometh-yl)pyrimidin-2-yl]amino}-phenyl)-1H-pyrazol-1-yl]propanamide], the IC50 is not above 100 nM. On to `Cc1cc(Nc2nccc(C(F)(F)F)n2)cc(-c2cnn(C[C@H](O)C(N)=O)c2)c1` [Example 7.4, (2S)-2-hydroxy-3-[4-(3-methyl-5-{[4-(trifluorometh-yl)pyrimidin-2-yl]amino}-phenyl)-1H-pyrazol-1-yl]propanamide], for which the IC50 was not above 100 nM. Turning to `Cc1cc(Nc2nccc(C(F)(F)F)n2)cc(-c2cnn(C(C)C(O)C(N)=O)c2)c1` (stereo not drawn) [Example 7.5, 2-hydroxy-3-[4-(3-methyl-5-{[4-(trifluorometh-yl)pyrimidin-2-yl]amino}-phenyl)-1H-pyrazol-1-yl]butanamide], the IC50 was not above 100 nM. For the molecule `Cc1cc(Nc2nccc(C(F)(F)F)n2)cc(-c2cnn(C(C)C(O)C(N)=O)c2)c1` (stereo not drawn) [Example 7.6, 2-hydroxy-3-[4-(3-methyl-5-{[4-(trifluorometh-yl)pyrimidin-2-yl]amino}-phenyl)-1H-pyrazol-1-yl]butanamide], the IC50 is not above 100 nM.

In the case of `Cc1cc(Nc2nccc(C(F)(F)F)n2)cc(-c2cnn(C[C@@H](O)C(N)=O)c2)c1` [Example 8.2, (2R)-2-hydroxy-3-[4-(3-methyl-5-{[4-(trifluorometh-yl)pyrimidin-2-yl]amino}phenyl)-1H-pyrazol-1-yl]propanamide], the IC50 is not above 100 nM. For the molecule `Cc1cc(Nc2nccc(C(F)(F)F)n2)cc(-c2cnn(C[C@H](O)C(N)=O)c2)c1` [Example 8.4, (2S)-2-hydroxy-3-[4-(3-methyl-5-{[4-(trifluoromethyl)-pyrimidin-2-yl]amino}-phenyl)-1H-pyrazol-1-yl]propanamide], the IC50 was not above 100 nM. In the case of `Cc1cc(Nc2nccc(OCCO)n2)cc(-c2cnn(C3CCC(C(N)=O)CC3)c2)c1` (stereo not drawn) [Example 8.5, 4-[4-(3-{[4-(2-hydroxy-ethoxy)pyrimidin-2-yl]amino}-5-methylphenyl)-1H-pyrazol-1-yl]-cyclo-hexanecarboxamide], the IC50 is not above 100 nM. Still for that read-out and setting: to `Cc1cc(Nc2nccc(C(F)(F)F)n2)cc(-c2cnn(C3CCC(C(N)=O)CC3)c2)c1` (stereo not drawn) [Example 8.6, 4-[4-(3-methyl-5-{[4-(trifluorometh-yl)pyrimidin-2-yl]amino}-phenyl)-1H-pyrazol-1-yl]cyclohexane-carboxamide] belongs not above 100 nM; to `Cc1cc(Nc2nccc(C(F)(F)F)n2)cc(-c2cnn(C3CCC(C(N)=O)C(C)(C)C3)c2)c1` (stereo not drawn) [Example 8.7, 2,2-dimethyl-4-[4-(3-methyl-5-{[4-(trifluoromethyl)-pyrimidin-2-yl]amino}-phenyl)-1H-pyrazol-1-yl]cyclohexane-carboxamide], not above 100 nM; to `Cc1cc(Nc2nccc(C(F)(F)F)n2)cc(-c2cnn(CCCC(N)=O)c2)c1` [Example 8.9, 4-[4-(3-methyl-5-{[4-(trifluoromethyl)-pyrimidin-2-yl]amino}phenyl)-1H-pyrazol-1-yl]butanamide], not above 100 nM. In the case of `Cc1cc(Nc2nccc(C)n2)cc(-c2cnn(C(C)(C)C(N)=O)c2)c1` [Example 8.10, 2-methyl-2-(4-{3-methyl-5-[(4-methyl-pyrimidin-2-yl)amino]-phenyl}-1H-pyrazol-1-yl)propanamide], the IC50 was in the range of 100 to 1000 nM.

Regarding `Cc1cc(Nc2nccc(C(F)(F)F)n2)cc(-c2cnn(CC(O)c3ccc(C(N)=O)cc3)c2)c1` (stereo not drawn) [Example 8.12, 4-{1-hydroxy-2-[4-(3-methyl-5-{[4-(trifluoromethyl)-pyrimidin-2-yl]amino}-phenyl)-1H-pyrazol-1-yl]ethyl}benzamide], the IC50 was not above 100 nM.

On to `Cc1cc(Nc2nccc(C(F)(F)F)n2)cc(-c2cnn(C[C@@H](O)C(N)=O)c2)c1` [Example 8.13, (2r)-2-hydroxy-3-[4-(3-methyl-5-{[4-(trifluorometh-yl)pyrimidin-2-yl]amino}phenyl)-1H-pyrazol-1-yl]propanamide], for which the IC50 is not above 100 nM. In the case of `Cc1cc(Nc2nccc(C(F)(F)F)n2)cc(-c2cnn(C[C@H](O)C(N)=O)c2)c1` [Example 8.16, (2s)-2-hydroxy-3-[4-(3-methyl-5-{[4-(trifluorometh-yl)pyrimidin-2-yl]amino}phenyl)-1H-pyrazol-1-yl]propanamide], the IC50 is not above 100 nM. Consider `Cc1cc(Nc2nccc(OCCO)n2)cc(-c2cnn(C3CCC(C(N)=O)CC3)c2)c1` (stereo not drawn) [Example 8.17, 4-[4-(3-{[4-(2-hydroxy-ethoxy)pyrimidin-2-yl]amino}-5-methylphenyl)-1H-pyrazol-1-yl]-cyclo-hexanecarboxamide], for which the IC50 is not above 100 nM. The same measure, in the same setting: then `Cc1cc(Nc2nccc(C(F)(F)F)n2)cc(-c2cnn(C3CCC(C(N)=O)CC3)c2)c1` (stereo not drawn) [Example 8.18, 4-[4-(3-methyl-5-{[4-(trifluorometh-yl)pyrimidin-2-yl]amino}phenyl)-1H-pyrazol-1-yl]-cyclohexane-carboxamide], with not above 100 nM; and `Cc1cc(Nc2nccc(C(F)(F)F)n2)cc(-c2cnn(C3CCC(C(N)=O)C(C)(C)C3)c2)c1` (stereo not drawn) [Example 8.19, 2,2-dimethyl-4-[4-(3-methyl-5-{[4-(trifluorometh-yl)pyrimidin-2-yl]amino}phenyl)-1H-pyrazol-1-yl]-cyclohexanecarbox-amide], with not above 100 nM.

Take `Cc1cc(Nc2nccc(C(F)(F)F)n2)cc(-c2cnn(C(C)C(N)=O)c2)c1` (stereo not drawn) [Example 8.20, 2-[4-(3-methyl-5-{[4-(trifluorometh-yl)pyrimidin-2-yl]amino}phenyl)-1H-pyrazol-1-yl]propanamide]: the IC50 was not above 100 nM. Consider `Cc1cc(Nc2nccc(C(F)(F)F)n2)cc(-c2cnn(CC(C)(O)C(N)=O)c2)c1` (stereo not drawn) [Example 8.23, 2-hydroxy-2-methyl-3-[4-(3-methyl-5-{[4-(trifluoromethyl)-pyrimidin-2-yl]amino}-phenyl)-1H-pyrazol-1-yl]propanamide], for which the IC50 was not above 100 nM. In the case of `Cc1cc(Nc2nccc(C(F)(F)F)n2)cc(-c2cnn(CC(O)c3ccc(C(N)=O)cc3)c2)c1` (stereo not drawn) [Example 8.24, 4-{1-hydroxy-2-[4-(3-methyl-5-{[4-(trifluorometh-yl)pyrimidin-2-yl]amino}-phenyl)-1H-pyrazol-1-yl]ethyl}-benzamide], the IC50 is not above 100 nM. As to `Cc1cc(Nc2nccc(C(F)(F)F)n2)cc(-c2cnn(C(C)(C)CC#N)c2)c1` [Example 9.1, 3-methyl-3-[4-(3-methyl-5-{[4-(trifluoromethyl)pyrimidin-2-yl]amino}phenyl)-1H-pyrazol-1-yl]butanenitrile], the IC50 was not above 100 nM.

For the molecule `Cc1cc(Nc2nccc(C(F)(F)F)n2)cc(-c2cnn(C3CCCC(O)C3O)c2)c1` (stereo not drawn) [Example 10.2, 3-[4-(3-methyl-5-{[4-(trifluorometh-yl)pyrimidin-2-yl]amino}phen-yl)-1H-pyrazol-1-yl]cyclohexane-1,2-diol], the IC50 is not above 100 nM. Consider `Cc1cc(Nc2nccc(C(F)(F)F)n2)cc(-c2cnn(C3CCCC(O)C3O)c2)c1` (stereo not drawn) [Example 10.3], for which the IC50 was not above 100 nM. The same measure, in the same setting: then `Cc1cc(Nc2nccc(C)n2)cc(-c2cnn(C3CCCC(O)C3O)c2)c1` (stereo not drawn) [Example 10.8, 3-(4-{3-methyl-5-[(4-methylpyrimidin-2-yl)amino]phenyl}-1H-pyrazol-1-yl)cyclohexane-1,2-diol], with not above 100 nM; and `Cc1cc(Nc2nccc(C)n2)cc(-c2cnn(C3CCCC(O)C3O)c2)c1` (stereo not drawn) [Example 10.9, 3-(4-{3-methyl-5-[(4-methylpyrimidin-2-yl)amino]phenyl}-1H-pyrazol-1-yl)cyclohexane-1,2-diol], with not above 100 nM; and `Cc1cc(Nc2nccc(C)n2)cc(-c2cnn(C3CCCC(O)C3O)c2)c1` (stereo not drawn) [Example 10.10, 3-(4-{3-methyl-5-[(4-methylpyrimidin-2-yl)amino]phenyl}-1H-pyrazol-1-yl)cyclohexane-1,2-diol], with not above 100 nM.

`Cc1cc(Nc2nccc(C3CC3)n2)cc(-c2cnn(C[C@@H](O)C(=O)O)c2)c1` [Example 11.1, (R)-3-(4-(3-(4-cyclopropylpyrimidin-2-ylamino)-5-methylphenyl)-1H-pyrazol-1-yl)-2-hydroxypropanoic acid]: the IC50 is not above 100 nM.
